Assay results published in PubChem BioAssay (NCI).
Where “and” joins values, the source holds several entries; their conditions need not be identical. Equal values may be shown once.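 Exposure lasted 48 hours, with cells grown in 96-well plates and compounds tested at five concentrations. Abbreviation: GI50, concentration required for 50% inhibition of growth. TGI: total growth inhibition.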

Columns and labels:
Test in all cases: growth of human tumour cells (NCI), 48 h
BT-549 breast = test system: BT-549 breast
COLO 205 colon = test system: COLO 205 colon
DU-145 prostate = test system: DU-145 prostate
MALME-3M melanoma = test system: MALME-3M melanoma
MCF7 breast = test system: MCF7 breast
NCI-H23 lung = test system: NCI-H23 lung
NCI/ADR-RES ovarian = test system: NCI/ADR-RES ovarian
OVCAR-3 ovarian = test system: OVCAR-3 ovarian
SF-295 CNS = test system: SF-295 CNS
SN12C renal = test system: SN12C renal

Structure (SMILES) | GI50 (BT-549 breast) | TGI (BT-549 breast) | GI50 (COLO 205 colon) | TGI (COLO 205 colon) | GI50 (DU-145 prostate) | TGI (DU-145 prostate) | GI50 (MALME-3M melanoma) | TGI (MALME-3M melanoma) | GI50 (MCF7 breast) | TGI (MCF7 breast) | GI50 (NCI-H23 lung) | TGI (NCI-H23 lung) | GI50 (NCI/ADR-RES ovarian) | TGI (NCI/ADR-RES ovarian) | GI50 (OVCAR-3 ovarian) | TGI (OVCAR-3 ovarian) | GI50 (SF-295 CNS) | TGI (SF-295 CNS) | GI50 (SN12C renal) | TGI (SN12C renal)
CS(=O)(=O)CCNCc1nc(-c2ccc3ncnc(Nc4ccc(OCc5cccc(C(F)(F)F)c5)cc4)c3c2)cs1 | > 25 µM | > 25 µM | > 23.9 µM | > 25 µM | > 17.7 µM | > 25 µM | 14 µM | > 25 µM | > 17.5 µM | > 25 µM | 12.5 µM | > 25 µM | > 25 µM | > 25 µM | > 17.3 µM | > 25 µM | 9.45 µM | > 25 µM | > 25 µM | > 25 µM
Cn1cc(C2=C(c3cn(CCCCO)c4ccccc34)C(=O)NC2=O)c2ccccc21 | 8.27 µM | > 19.6 µM | 7.28 µM | > 19.5 µM | 10 µM | > 25 µM | > 21.6 µM | > 25 µM | 4.45 µM | > 25 µM | 10.1 µM | > 25 µM | 11.2 µM | > 25 µM | 8.09 µM | > 25 µM | 5.9 µM | > 25 µM | 7.17 µM | > 25 µM
COc1cc(-n2cc(-c3ccc(F)cc3)[nH]c2=O)cc(OC)c1OC | 83.4 µM | > 100 µM | > 100 µM | > 100 µM | > 100 µM | > 100 µM | > 100 µM | > 100 µM | > 100 µM | > 100 µM | > 100 µM | > 100 µM | > 100 µM | > 100 µM | > 100 µM | > 100 µM | > 100 µM | > 100 µM | > 100 µM | > 100 µM
O=C1Nc2ccccc2/C1=N\[O-].O=C1Nc2ccccc2/C1=N\[O-].[Cu+2] | > 100 µM | > 100 µM | > 100 µM | > 100 µM | > 100 µM | > 100 µM | > 100 µM | > 100 µM | > 100 µM | > 100 µM | > 100 µM | > 100 µM | > 100 µM | > 100 µM | > 100 µM | > 100 µM | > 100 µM | > 100 µM | > 100 µM | > 100 µM
Cc1ncc(C(=O)Nc2ccc(CN3CCN(C)CC3)c(C(F)(F)F)c2)cc1C#Cc1cnc(N)c2ccncc12 | 2.85 µM | 8.33 µM | 0.687 µM | 2.04 µM | 1.1 µM | 3.27 µM | 0.361 µM | 1.59 µM | 1.35 µM | 2.9 µM | 1.34 µM | 3.35 µM | 1.61 µM | 5.47 µM | 1.67 µM | 5.33 µM | 1.23 µM | 2.93 µM | 0.616 µM | 3.77 µM
C=CCCCCOc1ccccc1-c1cnc(OCCCCC=C)n1C | 4.15 µM | 18.7 µM | 3.23 µM | 11.1 µM | 5.68 µM | 22.3 µM | 3.63 µM | 16.4 µM | 2.89 µM | 11.6 µM | 5.04 µM | 26.8 µM | 2.29 µM | 5.96 µM | 3.21 µM | 10.1 µM | 4.03 µM | 20.1 µM | 5.51 µM | 23.9 µM
COc1cc2c(c(OC)c1OC)-c1ccc(SC)c(=O)cc1C(NC=O)CC2 (stereo not drawn) | – | > 100 µM | – | < 0.01 µM | – | < 0.01 µM | – | > 83 µM | – | 42 µM | – | 50 µM | – | 0.273 µM | – | 2.33 µM | – | 0.123 µM | – | > 89.5 µM
O=C(CSc1nc2ccccc2nc1-c1ccccc1)Nc1ccc(F)cc1 | 24.6 µM | 66.5 µM | 83.3 µM | > 100 µM | 51 µM | > 100 µM | 17.1 µM | 54 µM | 57.2 µM | > 100 µM | 69.7 µM | > 100 µM | 29.9 µM | > 100 µM | 28 µM | > 100 µM | 40.6 µM | > 100 µM | 36.5 µM | > 100 µM
O=C(c1ccccc1Br)C(F)(F)F | – | > 100 µM | – | > 100 µM | – | > 100 µM | – | > 100 µM | – | > 100 µM | – | > 100 µM | – | > 100 µM | – | > 100 µM | – | > 100 µM | – | > 100 µM
NCCNc1c2c(c(NCCN)c3[nH]ccc13)C(=O)c1ccccc1C2=O | 1.22 µM | 2.62 µM | 0.28 µM | 5.8 µM | 0.694 µM | 2.4 µM | 0.177 µM | 0.658 µM | 0.029 µM | 0.323 µM | 0.0741 µM | 0.475 µM | 13.3 µM | 29.6 µM | < 0.0489 µM | 0.251 µM | < 0.0341 µM | 0.352 µM | 0.0978 µM | 0.994 µM
CCCN1C(=O)N(CCC)C2C1NC(=S)N2/N=C/C=C/c1ccccc1OC (stereo not drawn) | 2.77 µM | 32.9 µM | 0.52 µM | 9.09 µM | 0.557 µM | > 100 µM | 0.694 µM | 82.1 µM | 0.39 µM | > 100 µM | 2.66 µM | > 100 µM | 0.498 µM | > 100 µM | 0.273 µM | 0.815 µM | 0.487 µM | 29.4 µM | 1.84 µM | 33.3 µM
C=C(Cl)C(Br)(CCl)CCC(Br)C(C)(C)Cl (stereo not drawn) | 1.99 µM | 3.83 µM and 4.53 µM | 2.13 µM | 4.64 µM | – | 26.7 µM | 2.22 µM | 8.51 µM and 4.96 µM | 4.08 µM | 7.13 µM and 15.6 µM | 2.46 µM | 5.57 µM | 4.39 µM | 10.9 µM | 2.01 µM | 3.73 µM | – | 19.9 µM | 1.89 µM | 7.06 µM and 3.6 µM
COc1ccc(-c2nn(-c3ccc(NC(=O)c4ccc(Cl)c(Cl)c4)cc3)cc2-c2ccncc2)cc1Cl | 3.23 µM | > 50 µM | 1.45 µM | 3.8 µM | > 50 µM | > 50 µM | 5.88 µM | > 50 µM | 2.97 µM | > 50 µM | > 12.7 µM | > 50 µM | 4.12 µM | > 50 µM | > 20.3 µM | > 50 µM | 0.979 µM | 2.67 µM | > 50 µM | > 50 µM
COc1c(OC[C@H](O)CN2CCOCC2)ccc2c3n(c(=NC(=O)c4cccnc4C)nc12)CCN3 | 0.365 µM | 46.6 µM | 0.918 µM | > 50 µM | 6.72 µM | > 50 µM | 0.982 µM | > 50 µM | 0.0751 µM | > 50 µM | > 50 µM | > 50 µM | > 50 µM | > 50 µM | 0.432 µM | > 50 µM | 0.541 µM | 17.2 µM | 1.72 µM | > 50 µM
CN(C)CC[PH+](c1ccccc1)c1ccccc1.CN(C)CC[PH+](c1ccccc1)c1ccccc1.[Cl-].[Pd+2] | > 100 µM | > 100 µM | 80.2 µM | > 100 µM | > 100 µM | > 100 µM | > 100 µM | > 100 µM | > 100 µM | > 100 µM | > 100 µM | > 100 µM | > 100 µM | > 100 µM | > 100 µM | > 100 µM | > 100 µM | > 100 µM | > 100 µM | > 100 µM
Cc1ccc(NC(=O)CC2CC2)cc1-c1ccc(C(=O)NCC2CC2)cc1 | > 25 µM | > 25 µM | > 25 µM | > 25 µM | > 25 µM | > 25 µM | > 25 µM | > 25 µM | > 25 µM | > 25 µM | > 25 µM | > 25 µM | > 25 µM | > 25 µM | > 25 µM | > 25 µM | > 25 µM | > 25 µM | > 25 µM | > 25 µM
O=C(Nc1ccncc1)C(=O)c1cn(S(=O)(=O)c2ccc(F)cc2)c2ccccc12 | 1.58 µM | 39.9 µM | 24.7 µM | > 100 µM | 3.37 µM | 20.4 µM | 1.61 µM | 88.8 µM | 0.779 µM | > 100 µM | 2.54 µM | > 100 µM | 1.76 µM | > 100 µM | 1.76 µM | 7.6 µM | 3.01 µM | 38.1 µM | 6.58 µM | > 100 µM
CC[C@H]1[C@@H]2C=C[C@@H]3[C@H]4C/C=C\C(=O)NCCC[C@@H]5NC(=O)/C(=C(O)/C=C/[C@@H]4C[C@@H]3[C@H]2C[C@H]1C)C5=O | 1.29 µM | 2.74 µM | 3.24 µM | 8.44 µM | 0.715 µM | 1.94 µM | 1.39 µM | 2.83 µM | 1.75 µM | 3.88 µM | 1.81 µM | 4.28 µM | 0.815 µM | 2.36 µM | 0.202 µM | 0.556 µM | 1.42 µM | 2.8 µM | 0.569 µM | 1.99 µM
Oc1cccnc1[Se] | – | > 100 µM | – | 35 µM | – | > 100 µM | – | > 100 µM | – | > 100 µM | – | > 100 µM | – | > 100 µM | – | > 100 µM | – | 97.3 µM | – | > 100 µM
